From ChEMBL document CHEMBL3804786, “Novel 1,3-thiazolidin-4-one derivatives as promising anti-Candida agents endowed with anti-oxidant and chelating properties” (Eur J Med Chem, 2016)
Values after ≈ are worked out from the molar mass of the structure shown.

Legend:
Klebsiella oxytoca = experiment: Antibacterial activity against Klebsiella oxytoca clinical isolate after 18 to 22 hrs by broth microdilution method; type: functional
Enterococcus faecalis = experiment: Antibacterial activity against Streptococcus faecalis clinical isolate after 18 to 22 hrs by broth microdilution method; type: functional
[1] = Cytotoxicity against human Hep2 cells assessed as cell survival at 5 ug/ml after 24 hrs by trypan blue exclusion assay; type: cell-based, HEp-2; details: read-out: Survival
[2] = Cytotoxicity against human Hep2 cells assessed as cell survival at 10 ug/ml after 24 hrs by trypan blue exclusion assay; type: cell-based, HEp-2; details: read-out: Survival
[3] = Antioxidant activity assessed as ABTS radical scavenging activity after 30 mins under dark conditions; type: physicochemical
Enterobacter sp. = experiment: Antibacterial activity against Enterobacter spp. clinical isolate after 18 to 22 hrs by broth microdilution method; type: functional
Candida parapsilosis = experiment: Antifungal activity against Candida parapsilosis clinical isolate after 24 hrs by broth microdilution method; type: functional; details: Lodderomyces parapsilosis
Proteus mirabilis = experiment: Antibacterial activity against Proteus mirabilis clinical isolate after 18 to 22 hrs by broth microdilution method; type: functional
Staphylococcus aureus = experiment: Antibacterial activity against Staphylococcus aureus clinical isolate after 18 to 22 hrs by broth microdilution method; type: functional
Candida albicans = experiment: Antifungal activity against Candida albicans clinical isolate after 24 hrs by broth microdilution method; type: functional
[4] = Cytotoxicity against human Hep2 cells assessed as cell survival at 50 ug/ml after 24 hrs by trypan blue exclusion assay; type: cell-based, HEp-2; details: read-out: Survival
[5] = Cytotoxicity against human Hep2 cells assessed as cell survival at 0.5 ug/ml after 24 hrs by trypan blue exclusion assay; type: cell-based, HEp-2; details: read-out: Survival
[6] = Cytotoxicity against human Hep2 cells assessed as cell survival at 0.05 ug/ml after 24 hrs by trypan blue exclusion assay; type: cell-based, HEp-2; details: read-out: Survival
[7] = Antioxidant activity of the compound after 30 mins by FRAP assay; type: physicochemical
[8] = system: Streptococcus sp. (viridans group); experiment: Antibacterial activity against Streptococcus alpha-hemolyticus clinical isolate after 18 to 22 hrs by broth microdilution method
[9] = Cytotoxicity against human Hep2 cells assessed as reduction in cell viability after 24 hrs by trypan blue exclusion assay; type: cell-based, HEp-2
Pichia kudriavzevii = experiment: Antifungal activity against Candida krusei clinical isolate after 24 hrs by broth microdilution method; type: functional
[Candida] sake = Antifungal activity against Candida sake clinical isolate after 24 hrs by broth microdilution method; type: functional; details: Fermentozyma sake
[10] = Metal chelating activity of the compound assessed as ferrous ion complex formation after 10 mins; type: physicochemical
Nakaseomyces glabratus = experiment: Antifungal activity against Candida glabrata clinical isolate after 24 hrs by broth microdilution method; type: functional
[11] = Antioxidant activity assessed as DPPH radical scavenging activity after 30 mins under dark conditions; type: physicochemical
Escherichia coli = experiment: Antibacterial activity against Escherichia coli after clinical isolate 18 to 22 hrs by broth microdilution method; type: functional
Staphylococcus warneri = experiment: Antibacterial activity against Staphylococcus warneri clinical isolate after 18 to 22 hrs by broth microdilution method; type: functional
Candida tropicalis = experiment: Antifungal activity against Candida tropicalis clinical isolate after 24 hrs by broth microdilution method; type: functional
[12] = Antioxidant activity of the compound after 30 mins by CUPRAC method; type: physicochemical
[13] = Antioxidant activity of the compound after 90 mins by phosphomolybdenum assay; type: physicochemical

| Structure (SMILES) | MIC (Klebsiella oxytoca) [µg/mL] | MIC (Enterococcus faecalis) [µg/mL] | viability at 24 h, 5 ug/ml [1] [%] | viability at 24 h, 10 ug/ml [2] [%] | IC50 [3] [mM] | MIC (Enterobacter sp.) [µg/mL] | MIC (Candida parapsilosis) [µg/mL] | MIC (Proteus mirabilis) [µg/mL] | MIC (Staphylococcus aureus) [µg/mL] | MIC (Candida albicans) [µg/mL] | viability at 24 h, 50 ug/ml [4] [%] | viability at 24 h, 0.5 ug/ml [5] [%] | viability at 24 h, 0.05 ug/ml [6] [%] | EC50 [7] [mM] | MIC [8] [µg/mL] | CC50 at 24 h [9] [µg/mL] | MIC (Pichia kudriavzevii) [µg/mL] | MIC ([Candida] sake) [µg/mL] | IC50 [10] [mM] | MIC (Nakaseomyces glabratus) [µg/mL] | other results |
| --- | --- | --- | --- | --- | --- | --- | --- | --- | --- | --- | --- | --- | --- | --- | --- | --- | --- | --- | --- | --- | --- |
| CC(C)=N/N=C1\SCC(=O)N1Cc1cccc([N+](=O)[O-])c1 | > 256 | > 256 | 51 | 0 | 19.4 | > 256 | 16 (≈ 52.2 µM) | > 256 | > 256 | 2 (≈ 6.53 µM) | 0 | 68 | 79 | 5.29 | > 256 | 5 (≈ 16.3 µM) | 2 (≈ 6.53 µM) | 2 (≈ 6.53 µM) | > 5 | 2 (≈ 6.53 µM) | IC50 [11]: > 5 mM; MIC (Escherichia coli): > 256 µg/mL; MIC (Staphylococcus warneri): > 256 µg/mL; MIC (Candida tropicalis): 2 µg/mL (≈ 6.53 µM); EC50 [12]: 2.35 mM; EC50 [13]: 1.24 mM |
| C/C(=N\N=C1/SCC(=O)N1Cc1cccc(F)c1)c1cccs1 | > 256 | > 256 | 42 | 0 | 21.1 | > 256 | 2 (≈ 5.76 µM) | > 256 | > 256 | 2 (≈ 5.76 µM) | 0 | 68 | 80 | 2.62 | > 256 | 6 (≈ 17.3 µM) | 2 (≈ 5.76 µM) | 2 (≈ 5.76 µM) | 4.64 | 8 (≈ 23 µM) | IC50 [11]: > 5 mM; MIC (Escherichia coli): > 256 µg/mL; MIC (Staphylococcus warneri): > 256 µg/mL; MIC (Candida tropicalis): 2 µg/mL (≈ 5.76 µM); EC50 [12]: 2.55 mM; EC50 [13]: 1.36 mM |
| O=C1CS/C(=N\N=C2CCCC2)N1Cc1ccc(Cl)cc1 | > 256 | > 256 | 59 | 47 | 18.3 | > 256 | 2 (≈ 6.21 µM) | > 256 | > 256 | 2 (≈ 6.21 µM) | 0 | 83 | 89 | 4.8 | > 256 | 16 (≈ 49.7 µM) | 8 (≈ 24.9 µM) | 4 (≈ 12.4 µM) | > 5 | 2 (≈ 6.21 µM) | IC50 [11]: > 5 mM; MIC (Escherichia coli): > 256 µg/mL; MIC (Staphylococcus warneri): > 256 µg/mL; MIC (Candida tropicalis): 2 µg/mL (≈ 6.21 µM); EC50 [12]: 2.1 mM; EC50 [13]: 0.56 mM |
| C/C(=N\N=C1/SCC(=O)N1Cc1cccc(Cl)c1)c1ccccn1 | > 256 | > 256 | 85 | 69 | 26.8 | > 256 | 2 (≈ 5.57 µM) | > 256 | > 256 | 2 (≈ 5.57 µM) | 0 | 87.5 | 94 | 4.93 | > 256 | 21 (≈ 58.5 µM) | 4 (≈ 11.1 µM) | 16 (≈ 44.6 µM) | 2.76 | 2 (≈ 5.57 µM) | IC50 [11]: > 5 mM; MIC (Escherichia coli): > 256 µg/mL; MIC (Staphylococcus warneri): > 256 µg/mL; MIC (Candida tropicalis): 2 µg/mL (≈ 5.57 µM); EC50 [12]: 1.4 mM; EC50 [13]: 2.04 mM |
| C/C(=N/N=C1\SCC(=O)N1Cc1ccccc1[N+](=O)[O-])c1cccs1 | > 256 | > 256 | 74 | 61 | 18.1 | > 256 | 8 (≈ 21.4 µM) | > 256 | > 256 | 2 (≈ 5.34 µM) | 0 | 84 | 88 | 2.4 | > 256 | 20 (≈ 53.4 µM) | 2 (≈ 5.34 µM) | 2 (≈ 5.34 µM) | > 5 | 2 (≈ 5.34 µM) | IC50 [11]: > 5 mM; MIC (Escherichia coli): > 256 µg/mL; MIC (Staphylococcus warneri): > 256 µg/mL; MIC (Candida tropicalis): 4 µg/mL (≈ 10.7 µM); EC50 [12]: 2.25 mM; EC50 [13]: 1.12 mM |
